# Several values for one entry are separate records, joined by “and”; a condition that tells them apart may be missing. Equal entries are not always repeated. Entries after “also recorded” stand apart in the source; their conditions may differ.
# Experiments:
# Aβ 1-40 [1] = target: T1, Aβ 1-40 (Homo sapiens, UniProt P05067); test: Sedimentation velocity of Aβ quaternary structures in the presence of inhibitors; format: biochemical; parameters: Amyloid-β (Aβ 1-40) was purchased from California Peptides (Lot # SF104); purchased California Peptides Lot # SF104; conditions: for Average sedimentation coefficients of two populations of oligomeric species: apomorphine 50 μM
# T1 sequence (P05067 672-711): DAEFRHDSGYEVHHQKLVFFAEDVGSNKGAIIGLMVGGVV
# Protocol: Probing the Mechanism of Amyloid Fibril Formation Inhibition using Sedimentation Velocity Experiments. To probe the mechanism by which apomorphine and its structural analogues inhibit Aβ fibril formation, sedimentation velocity was used to determine the distribution and molecular size of quaternary structures of Aβ in the presence and absence of inhibitors. Aβ samples (100 μM) in a pH 7.4 buffer (50 mM Tris-HCl, 150 mM NaCl) were incubated at 37° C. for 1-10 days in the presence and absence of inhibitors, then transferred to 25° C. for 1-3 hours before the sedimentation experiments were carried out at 20° C. The sedimentation properties of Aβ 1-40 in the absence and presence of inhibitors were obtained from data collected on a temperature controlled Beckman XL-1 using 400-420 μL of peptide solutions and data were recorded at rotor speeds of 3,000-30,000 rpm in continuous mode with a step size of 0.005 cm. The sedimentation velocity absorbance profiles were then analyzed using the time derivative (dc/dt) analysis program, which was provided by J. Philo, to obtain the sedimentation coefficient distribution g(*s) for all the quaternary structures in solution as described previously (37, 38).
# Fitting of the g(*s) profiles allows for the determination of the sedimentation coefficient (peak position, with a unit of Svedberg, 1 S=10^−13 s) and the diffusion coefficient (from the peak width, with a unit of Fick, 1 F=[…]). This method has the advantage of allowing for the calculation of the molecular weight of the sedimenting species using equation II since s and D can be obtained from the fitting analysis. [formula]
# In the cases where the diffusion coefficient cannot be determined accurately, the molecular weight of a spherical protein can still be estimated by combining the Svedberg equation and Stokes equation for the frictional coefficient to obtain equation III which utilizes the estimated sedimentation coefficient: [formula]
# Sedimentation velocity was also used to determine the amount of soluble Aβ and Aβ monomer in solution after sedimentation of Aβ aggregates. […] The percent of monomeric species in solution was calculated using equation IV at 50,000 rpm and after complete sedimentation of Aβ high MW oligomeric species. Sedimentation equilibrium studies of the unsedimented species were carried out to determine whether a monomer, dimer or a mixture was present in solution. % of unsedimented Aβ=1−(Absorbance(290 nm, 3000 rpm)−Absorbance(290 nm, 20,000-30,000 rpm))×100 (IV)
# Aβ 1-40 [2] = target: T1, Aβ 1-40; test: Electron microscopy of Aβ aggregates in the presence of inhibitor; format: biochemical; parameters: Amyloid-β (Aβ 1-40) was purchased from California Peptides (Lot # SF104); purchased California Peptides Lot # SF104
# Protocol: Electron Microscopy. Electron microscopy was used to follow the changes in size and structural morphology of Aβ aggregates in the presence and absence of inhibitor at 37° C. as a function of time. EM samples were prepared by placing 5 μL of the Aβ solution on a carbon-coated grid and allowing the solution to stand for 2 min before removing excess solution. The grid was then washed once with distilled water and once with 1% uranyl acetate before staining the sample with fresh 1% uranyl acetate for another 2 min. The samples were then studied in a Phillips CM-100 electron microscope. The grids were thoroughly examined to get an overall statistical evaluation of the structures present in the sample. All electron micrographs were taken at 100 kV.
# Aβ 1-40 [3] = target: T1, Aβ 1-40; test: Thioflavin T (ThT) fluorescence assay for fibril formation; format: biochemical; parameters: Amyloid-β (Aβ 1-40) was purchased from California Peptides (Lot # SF104); purchased California Peptides Lot # SF104
# Protocol: Preparation of Stock Peptide Solutions for Fibrillization Studies. Stock solutions of the inhibitors were prepared by dissolving the compounds at a concentration of 5-7 mM in water or in 1-1.5% DMSO solutions (for compounds with reduced solubility). Amyloid-β (Aβ 1-40) was purchased from California Peptides (Lot # SF104). Aβ 1-40 stock solutions were prepared by dissolving purified and lyophilized peptide in cold double distilled water to yield stock solutions at a concentration of 2 mg/mL. The stock solutions were used within 10-30 minutes of dissolution. Samples for fibril formation assay were prepared by diluting the appropriate amount of Aβ stock with pH 7.4 Tris-HCl buffer (50 mM Tris, 150 mM NaCl) to afford a final peptide concentration of 100 μM. […] Analytical ultracentrifugation, and electron microscopy were periodically used to ensure that we start our experiments with a hydrodynamically defined Aβ monomer, and the absence of any preformed fibrils in solution.
# Thioflavin T (ThT) Fluorescence Assay for Fibril Formation. Thioflavin T was purchased from Aldrich (70% purity) and was recrystallized from benzene/ethanol (1:1) to afford yellow crystals (36). Thioflavin T binding assays were performed by addition of 50 μL of 100 μM Aβ solutions, which were incubated at 37° C. in the absence and presence of inhibitors, to 450 μL solution of 10 μM Thioflavin T in phosphate buffer (10 mM phosphate, 100 mM KCl). The solutions were mixed and fluorescence measurements were recorded in Biosystems model spectrofluorimeter at 25° C. using a 1 cm path length quartz cell. An excitation slit width of 4 nm and an emission slit width of 8 nm were employed. The excitation wavelength was set to 450 nm and emission monitored from 460-630 nm. The relative fluorescence at 482 nm was plotted for each sample, and was used as a measure of the amount of fibrillar aggregates in solution.
# Aβ 1-40 [4] = target: T1, Aβ 1-40; test: Visible sedimentable aggregates in Aβ 1-40 fibrillization samples; parameters: Amyloid-β (Aβ 1-40) was purchased from California Peptides (Lot # SF104); purchased California Peptides Lot # SF104; conditions: Aβ 1-40 100 μM, apomorphine 100 μM, 37° C., 1-3 days
# Protocol: Solutions of Aβ 1-40 (50-100 μM) were incubated at 37° C. for 1-3 days in the absence and presence of apomorphine at equimolar concentration.
# monomeric Aβ = target: T2, monomeric Aβ (Homo sapiens, UniProt P05067); test: Sedimentation equilibrium of unsedimented monomeric species, monitored at 330 nm; format: binding
# T2 construct: Amyloid-β (Aβ 1-40) was purchased from California Peptides (Lot # SF104); purchased California Peptides Lot # SF104
# T2 sequence (P05067 672-711): as above
# Protocol: Sedimentation equilibrium runs were performed on AD (100 μM) samples in the absence and presence of inhibitors (150 μL) at pH 7.4 at a rotor speed of 3,000-20,000 rpm using a double sector cell with charcoal-filled epon centerpieces and sapphire windows. All scans were performed at 280 nm or at 330 nm (for solutions containing apomorphine or apomorphine analogues) with a step size of 0.001 cm and 25 averaged scans. Samples were allowed to equilibrate for 24-30 h, and duplicate scans 3 h apart were overlaid to determine that equilibrium had been reached. The data were analyzed by a nonlinear least squares analysis using the Origin software provided by Beckman.
# Analytical ultracentrifugation methods were also employed to probe the mechanism of interaction of these molecules with Aβ. […] To investigate whether apomorphine binds to monomeric Aβ, we carried out a sedimentation equilibrium experiment on the remaining monomeric species by monitoring at 330 nm, where apomorphine is the sole contributor to the absorbance at this wavelength.
# Aβ 1-40 [5] = target: T1, Aβ 1-40; test: Congo red binding studies; format: biochemical; parameters: Amyloid-β (Aβ 1-40) was purchased from California Peptides (Lot # SF104); purchased California Peptides Lot # SF104; conditions: Aβ solutions containing apomorphine, 3 days at 37° C.
# Protocol: Congo Red Binding Studies. […] The concentration of the Congo red stock was determined by measuring the absorbance of a diluted aliquot at 477 nm (ε477 nm=34,722 cm^−1M^−1) (35). Buffered Congo red solutions at the desired concentration were prepared by dilution of an aliquot of the stock solution in 50 mM Tris-HCl, 150 mM NaCl (pH 7.4). Binding studies were carried out by diluting 10 μL of a 100 μM Aβ solutions to 90 μL of 10 μM Congo red buffered solution. The resulting solutions were then vortexed and the UV-Vis spectra (300-700 nm) was collected immediately using a Beckman UV/VIS spectrophotometer in a mini cuvette with a 1 cm pathlength.
smiles,measurement,setting,value
"CN1CCc2cccc3c2C1Cc1ccc(O)c(O)c1-3 (single isomer, unassigned; (-)) [apomorphine, (−)-10,11-dihydroxyaporphine]",Amount of nonfibrillar assemblies (protofibrils) formed by Aβ alone relative to that obtained in the presence of compound,Aβ 1-40 [1]; 20 hour incubation,~30%
same,Average sedimentation coefficients of two populations of oligomeric species,Aβ 1-40 [1]; Aβ 100 μM,35 S and 56 S
same,Average sedimentation coefficients of two populations of oligomeric species,"Aβ 1-40 [1]; Aβ 100 μM, listed as apomorhine",35 S and 56 S
same,Average sedimentation coefficient of Aβ-apomorphine complex(s),"Aβ 1-40 [1]; Aβ 100 μM, apomorphine 100 μM, 3 days, 30,000 rpm",50 S
same,"Sedimentation of Aβ 1-40 at 3,000 rpm (fibrils)",Aβ 1-40 [1]; apomorphine at equimolar ratio to Aβ 1-40,no sedimentation of Aβ 1-40 was observed
same,Increase in amount of soluble protofibrils,"Aβ 1-40 [1]; incubation 17-24 h at 37° C., in the presence of apomorphine",60%
same,Sedimentation coefficient after addition of apomorphine,"Aβ 1-40 [1]; incubation 17-24 h at 37° C., Aβ alone 20 S",30 S
same,Species seen by electron microscopy,"Aβ 1-40 [2]; Aβ 1-40 100 μM, apomorphine 50 μM",both long unbranched fibrils and short nonfibrillar assemblies were observed
same,Nonfibrillar assemblies as share of species in solution,"Aβ 1-40 [2]; Aβ 1-40 100 μM, apomorphine 50 μM, 3-6 days at 37° C.",70-85%
same,Species seen by electron microscopy,"Aβ 1-40 [2]; Aβ 1-40 100 μM, apomorphine 100 μM","accumulation of predominantly soluble, nonfibrillar assemblies"
same,Species by sedimentation velocity and EM,"Aβ 1-40 [2]; Aβ 1-40 100 μM, apomorphine 200 μM, 37° C., 2-6 days",stabilization of soluble oligomeric species
same,Fibril formation at apomorphine concentrations below 50 μM,"Aβ 1-40 [2]; Aβ 1-40 100 μM, apomorphine <50 μM, 3-9 days at 37° C.",significant fibrils were formed; also recorded: not effective as an inhibitor
same,Protofibril assembly into fibrils when compound is added to pre-incubated Aβ (EM and sedimentation velocity),"Aβ 1-40 [2]; Aβ pre-incubated 18-20 hr at 37° C., then three to nine days with compound",exhibited similar behavior
same,"Inhibition of Aβ fibril formation by EM, aged or freshly prepared stock solutions",Aβ 1-40 [2]; three to four days at 37° C.,effective inhibition of Aβ fibril formation
same,Thioflavin T fluorescence at 482 nm (amount of fibrils),"Aβ 1-40 [3]; Aβ 1-40 100 μM incubated with compound, pH 7.4, 37° C., 3 days",did not exhibit this typical fluorescence; also recorded: did not affect the ThT fluorescence spectra; also recorded: signal near background
same,Thioflavin T signal after longer incubation,"Aβ 1-40 [3]; longer incubation at 37° C., some long fibrils formed",did not exhibit any changes
same,Thioflavin T signal with sodium metabisulphite added,"Aβ 1-40 [3]; stock solutions containing 1% (v/v) sodium metabisulphite, 37° C., pH 7.4, 3 days",restoration of the ThT signal
same,Visible sedimentable aggregates,Aβ 1-40 [4],did not show any visible sedimentable aggregates
same,Molecular weight from single species fit of sedimentation equilibrium,"monomeric Aβ; remaining monomeric species, monitored at 330 nm","4,430 g/mol"
same,Binding to monomeric Aβ,monomeric Aβ; sedimentation equilibrium at 330 nm,bound to monomeric Aβ
same,Congo red maximal absorbance and red-shifted maximum,Aβ 1-40 [5],no increase in the maximal absorbance and red-shifted maximum
